Results taken from PubChem BioAssay AID2060908 (Molecular Pharmacology Branch, DTP, NCI, 2025).

Test system: 186277-243-T-J2-PDC complex spheroids, viability
Test: Anticancer human tumor 186277-243-T-J2-PDC patient-derived colon adenocarcinoma cell line growth inhibition [RAS]
Details: for IC50: curve of first compound; for viability, T/C: stronger effect = lower value
Text: RAS pathway inhibitors in Combinations in Complex Spheroids
A high-throughput screen of multi-cell type tumor spheroids was designed to identify active combinations of RAS pathway inhibitors and targeted small molecules. Complex spheroids include a stromal component modeled by human endothelial cells (HUVEC) and fibroblasts modeled by human mesenchymal stem cells (MSCs). The concentration ranges selected for each drug and investigational agent were based upon clinically achievable concentrations if the clinical Cmax of the agent was known.
Compounds. The drugs and investigational agents: abemaciclib (NSC768073), cobimetinib (NSC768068), divarasib (GDC6063, NSC841802), docetaxel (NSC628503), GDC-1971 (RLY-1971, NSC841576), gemcitabine (NSC613327), inavolisib (NSC800729), ipatasertib (NSC767898), KB-0742 (NSC834161), MRTX-1133 (NSC836407), osimertinib (NSC779217), RMC-4630 (NSC839698), RMC-6236 (NSC851965), RMC-6291 (NSC852671), Ro-3306 (NSC812927), sapanisertib (NSC764658), SN-38 (NSC673596), staurosporine (NSC755774), SY5609 (NSC837396), and tovorafenib (DAY101, NSC766906), were obtained from the National Cancer Institute (NCI) Developmental Therapeutics Program Chemical Repository. The FDA-approved anticancer drug set is available from the NCI Developmental Therapeutics Program. […] The stock solutions were prepared in dimethyl sulfoxide (DMSO, Sigma-Aldrich, St. Louis, MO, cat. D2650) at 800-fold the tested concentration and stored at -70 degrees C prior to their use. All drugs and investigational agents were tested over a range starting from a high concentration at or near the clinical Cmax and decreasing in half-log increments. If the clinical Cmax for an agent had not been determined, the highest concentration tested was 10 microM.
Cell Culture. All cells were maintained in an incubator at 37 degrees C and 5% CO2 with 95% humidity. The PDC lines were cultured according to standard operating procedures established by the NCI PDMR. All PDCs were thawed and cultured in Matrigel-coated flasks prepared with a working solution of 1X Ham's F-12 nutrient mix, without supplementation (Invitrogen, Waltham, MA, cat. 11765054), 100 U/mL penicillin-streptomycin (Invitrogen, cat. 15140122), and 2.5% Matrigel (Corning Inc., Corning, NY, cat. 354248) for the first three passages. The 362531-283-R-J2-PDC and 782815-120-R-J1-PDC lines were cultured in 6C/Colon 1B media, which includes advanced DMEM/F-12 (Thermo Fisher Scientific, cat. 12634028), 10 mM HEPES (Thermo Fisher Scientific, cat. 15630080), 1X GlutaMAX supplement (Thermo Fisher Scientific, cat. 35050061), 0.1 mg/mL primocin (InvivoGen, San Diego, CA, cat. ant-pm-2), 10% defined fetal bovine serum, heat inactivated (HyClone Laboratories Inc., Logan, UT, cat. SH30070.03HI), 50% L-WRN conditioned media (ATCC, cat. CRL-3276), 1.25 mM N-Acetyl-L-cysteine (Sigma-Aldrich, cat. A9165), 10 mM nicotinamide (Sigma-Aldrich, cat. N0636), 1X B-27 supplement (Thermo Fisher Scientific, cat. 17504044), 1X N-2 supplement (Thermo Fisher Scientific, cat. 17502048), 50 ng/mL human EGF (Thermo Fisher Scientific, cat. PHG0311), and 10 microM Y-27632 dihydrochloride (Tocris Bioscience, cat. 1254). The K12877-001-R-J1-PDC line was cultured in 6I media, which includes all 6C/Colon 1B media plus 10 ng/mL human FGF-10 (PeproTech, cat. 100-26), 1 ng/mL human FGF-2 (PeproTech, cat. 100-18B), 1 µM prostaglandin E2 (Tocris Bioscience, cat. 2296), […] hydrocortisone (Sigma-Aldrich, cat. H4001), and […] bovine insulin (Sigma-Aldrich, cat. I6634). The K86415-001-R-J1-PDC line was cultured in 6D media, which includes all 6C/Colon 1B media components minus the L-WRN conditioned media. The 485176-168-R4-J1-PDC was cultured in PANC media, which includes all 6C/Colon 1B media plus 100 ng/mL human FGF-10 (PeproTech, cat. 100-26), 500 nM SB-431542 (Selleckchem, cat. S1067), and 10 nM gastrin (Tocris Bioscience, cat. 3006). […]
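Further: spheroids exposed to compounds for 7 days before viability read.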

## CCN1CCN(Cc2ccc(Nc3ncc(F)c(-c4cc(F)c5nc(C)n(C(C)C)c5c4)n3)nc2)CC1 + C#Cc1c(F)ccc2cc(O)cc(-c3ncc4c(N5CC6CCC(C5)N6)nc(OCC56CCCN5CC(F)C6)nc4c3F)c12
Second compound 0.0316 µM
  IC50: 281 nM
Second compound 0.1 µM
  IC50: 14.9 nM
Second compound 0.316 µM
  IC50: < 3.16 nM
Second compound 1 µM
  IC50: < 3.16 nM
Second compound 3.16 µM
  IC50: < 3.16 nM
Second compound 10 µM
  IC50: < 3.16 nM
Second compound 0.0316 µM, first compound 0.00316 µM
  viability, T/C: 84.9%
Second compound 0.0316 µM, first compound 0.01 µM
  viability, T/C: 69.9%
Second compound 0.0316 µM, first compound 0.0316 µM
  viability, T/C: 66.7%
Second compound 0.0316 µM, first compound 0.1 µM
  viability, T/C: 67.2%
Second compound 0.0316 µM, first compound 0.316 µM
  viability, T/C: 49.2%
Second compound 0.0316 µM, first compound 1 µM
  viability, T/C: 22%
Second compound 0.1 µM, first compound 0.00316 µM
  viability, T/C: 65%
Second compound 0.1 µM, first compound 0.01 µM
  viability, T/C: 55.3%
Second compound 0.1 µM, first compound 0.0316 µM
  viability, T/C: 41.7%
Second compound 0.1 µM, first compound 0.1 µM
  viability, T/C: 31.1%
Second compound 0.1 µM, first compound 0.316 µM
  viability, T/C: 24%
Second compound 0.1 µM, first compound 1 µM
  viability, T/C: 16.7%
Second compound 0.316 µM, first compound 0.00316 µM
  viability, T/C: 28.9%
Second compound 0.316 µM, first compound 0.01 µM
  viability, T/C: 25.2%
Second compound 0.316 µM, first compound 0.0316 µM
  viability, T/C: 21.7%
Second compound 0.316 µM, first compound 0.1 µM
  viability, T/C: 16.6%
Second compound 0.316 µM, first compound 0.316 µM
  viability, T/C: 16.9%
Second compound 0.316 µM, first compound 1 µM
  viability, T/C: 13.1%
Second compound 1 µM, first compound 0.00316 µM
  viability, T/C: 13.1%
Second compound 1 µM, first compound 0.01 µM
  viability, T/C: 16.7%
Second compound 1 µM, first compound 0.0316 µM
  viability, T/C: 14.2%
Second compound 1 µM, first compound 0.1 µM
  viability, T/C: 11.6%
Second compound 1 µM, first compound 0.316 µM
  viability, T/C: 15.6%
Second compound 1 µM, first compound 1 µM
  viability, T/C: 11.4%
Second compound 3.16 µM, first compound 0.00316 µM
  viability, T/C: 12.8%
Second compound 3.16 µM, first compound 0.01 µM
  viability, T/C: 10.5%
Second compound 3.16 µM, first compound 0.0316 µM
  viability, T/C: 9.68%
Second compound 3.16 µM, first compound 0.1 µM
  viability, T/C: 10.6%
Second compound 3.16 µM, first compound 0.316 µM
  viability, T/C: 11.5%
Second compound 3.16 µM, first compound 1 µM
  viability, T/C: 10.6%
Second compound 10 µM, first compound 0.00316 µM
  viability, T/C: 10.4%
Second compound 10 µM, first compound 0.01 µM
  viability, T/C: 8.81%
Second compound 10 µM, first compound 0.0316 µM
  viability, T/C: 10.7%
Second compound 10 µM, first compound 0.1 µM
  viability, T/C: 9.4%
Second compound 10 µM, first compound 0.316 µM
  viability, T/C: 9.61%
Second compound 10 µM, first compound 1 µM
  viability, T/C: 7.42%
